Several values for one entry are separate records, joined by “and”; a condition that tells them apart may be missing. Identical values can stand only once. Entries after “also recorded” stand apart in the source; their conditions may differ.
Key:
[1] = biological target: T1, KCa3.1 channel in A549-3R cells (Homo sapiens, UniProt O15554); experiment: Co-staining of permeabilized A549-3R cells with fluorescent probe and antibodies (Protocols 7a and 7b); format: cell-based; conditions: for Average Green (in % ± SD): green = channels stained with 10b; for Average Red (in % ± SD): red = channels stained with antibodies
T1 construct: the non-small cell lung cancer cell line A549-3R with a high expression of the KCa3.1 channel was employed; endogenous in cells; host or cells: A549-3R cells
Method: The cells were stained with antibodies as described in Protocol 6. Afterwards, the cells were stained with 300 µL of staining solution and the mixture was incubated for 10 min at 4 °C in a dark chamber. Subsequently, the cells were washed five times with 1 mL of PBS and were used for fluorescence microscopy.
The cells were treated as described in Protocol 5 to permeabilize the cells. Subsequently, staining solution was added and the cells were incubated for 10 min as described in Protocol 1. After washing the cells three times with PBS, Protocol 6 for the antibody staining was performed. Subsequently, the cells were used for fluorescence microscopy.
For the co-staining experiments, the permeabilized A549-3R cells were first incubated with the antibodies and subsequently stained with bodipy-labeled senicapoc derivative 10b for 10 min (protocol 7a). The images were analyzed with the FITC filter set to observe the fluorescence generated by 10b and the TRITC filter set to observe the fluorescence emitted by the secondary antibody (Figure 5). In a further experiment, the order of staining modalities was reversed, i.e., the cells were first labeled with fluorescent probe 10b for 10 min and second with the antibodies (Figure 6).
The obtained green, red and yellow dots were analyzed as described in the cell staining experiments above. The density of antibody-stained KCa3.1 channels (red dots) was higher than the density of KCa3.1 channels stained with bodipy-labeled senicapoc derivative 10b independent of the order of staining modality (Table 3). […] A successful co-staining was only counted when the distance between the signal peak maxima was ≤1 pixel.

HEK293 cells = experiment: Negative control staining of HEK293 cells, which do not express KCa3.1 channels; format: cell-based; conditions: HEK293 cells do not express KCa3.1 channels
Method: (§1) After fixation of the cells (Section 2.10.2), 300 µL of the 10 µM staining solution was added to the glass bottom dish. The cells were incubated for 10 min at 4 °C in a dark chamber. After incubation, the cells were washed five times with 1 mL of PBS and used subsequently for fluorescence microscopy.
In a second control experiment, azide precursor 7b without the senicapoc warhead was incubated with fixed A549-3R tumor cells.

[2] = biological target: T1, KCa3.1 channel in A549-3R cells; experiment: Staining of fixed A549-3R tumor cells (Protocol 1), fluorescence microscopy; format: cell-based; conditions: 10 min, 4 °C
Method: For the fixation of the cells, the DMEM medium was removed from the glass bottom dish after incubation for 24 h, and the cells were washed with 1 mL of PBS. Subsequently, 1 mL of 4% paraformaldehyde in PBS solution was added to the glass bottom dish and the mixture was incubated for 30 min at room temperature. Thereafter, the cells were washed five times with 1 mL of PBS and used for the cell staining experiments.
as §1
(§2) An Axiovert 200 inverted microscope (Carl Zeiss AG, Jena, Germany) with a ×100 oil immersion objective and a digital camera (SPOT RT SE from Diagnostic Instruments Inc., Livingston, UK) were used. The camera was controlled by MetaVue software (version 6.3r6, Visitron, Germany). Two different filter sets were employed, the FITC filter set (Carl Zeiss Filter Set 10 bandwidth excitation filter 450–490, color splitter 510, bandpass filter 515–565) and the TRITC filter set (Carl Zeiss Filter Set 15, bandpass excitation filter 546/12, dichroic mirror 580, emission filter Long Pass 590).
(§3) Using the free imaging software ImageJ (1.53f51, NIH, USA), squares with an edge length of 50 × 50 pixels, corresponding to an area of 9 µm^2, were randomly placed in a cell and signals with Full Width at Half Maximum (FWHM) of ≤5 pixels (~300 nm) were counted as a KCa3.1 channel. For the evaluation, 7 squares were analyzed.
For the staining experiments, the non-small cell lung cancer cell line A549-3R with a high expression of the KCa3.1 channel was employed. An optimized staining protocol (Protocol 1) described previously was followed to analyze the imaging properties of the fluorescent probes. In brief, the 10 µM solution of the senicapoc–dye conjugate in PBS was added to adherent A549-3R cells in a glass bottom dish and the set-up was incubated for 10 min at 4 °C in a dark chamber. After careful washing, the cells were analyzed with a fluorescence microscope.
The images were analyzed with respect to size and density of the fluorescent dots. For this purpose, a square with a size of 50 × 50 pixels was randomly placed on the cell images using ImageJ. The intensities of the signals within the square were analyzed to calculate the Full Width at Half Maximum (FWHM) for each selected dot, which represents a measure for the signal size. For the accurate representation of a single KCa3.1 channel, the FWHM should be in the range of five pixels. Signals with a FWHM of ≤5 pixels within the square were regarded as labeled KCa3.1 channels and the number of identified channels was used to determine the density of the ion channels on the cells (Figure S8, Supplementary Materials).

[3] = biological target: T1, KCa3.1 channel in A549-3R cells; experiment: Staining of living A549-3R cells (Protocol 2); format: cell-based
Method: The cells were used without fixation. After incubation of the cells for 24 h (Section 2.10.1), the medium was removed, and the cells were washed three times with 1 mL of PBS. […]
as §2, §3
In the next experiment, living A549-3R cells were stained with 10b.

[4] = logD7.4 by micro shake flask method (n-octanol / MOPS buffer pH 7.4, LC-MS); format: physicochemical; conditions: read-out: logD7.4 ± SD (Micro Shake Flask)
Method: The logD7.4 values were recorded using the micro shake flask method. In this method, the test compound is distributed between n-octanol and MOPS buffer pH 7.4, and the amount of the compound in the buffer layer is determined by mass spectrometry.
The new fluorescent dyes were designed to increase the polarity and reduce the non-specific labeling of lipophilic membranes of cells. Moreover, a higher polarity should lead to increased water solubility and thus improved handling of the dyes. The logD7.4 value was recorded as a measure of the polarity/lipophilicity using our recently published micro-shake flask method. According to this method, the amount of compound in the aqueous 3-morpholinopropanesulfonic acid (MOPS) buffer pH 7.4 was determined by LC-MS [31, 32].

[5] = living A549-3R cells, Protocol 2

- Average Green (in % ± SD) ([1]; Protocol 7a (antibody first)): 41.5% and 41.5 ± 4.75%
- Average Red (in % ± SD) ([1]; Protocol 7a (antibody first)): 58.5 ± 9.60%
- Average Green (in % ± SD) ([1]; Protocol 7b (10b first)): 41.4 ± 5.56%
- Average Red (in % ± SD) ([1]; Protocol 7b (10b first)): 58.6 ± 8.52%
- co-staining of a single KCa3.1 channel with both imaging tools (yellow dots) ([1]; distance between signal peak maxima ≤1 pixel counted as co-staining): hardly observed
- FWHM of fluorescent dots ([2]; fixed A549-3R cells, 10 µM): 5.27 ± 0.22 pixels and 5.27 pixels
- staining pattern of living A549-3R cells ([3]; Protocol 2, 10 µM, 10 min, 4 °C): distinct punctate staining pattern
- FWHM of fluorescent dots [3, 5]: 4.89 ± 0.50 pixels
- density of labeled KCa3.1 channels [3, 5]: 1.11 ± 0.11 KCa3.1 channels per µm^2
- logD [4]: > 5
SMILES: CCC1=C(C)C2=C(c3ccc(OCCOCCn4cc(COc5ccc(C(C(N)=O)(c6ccccc6)c6ccc(F)cc6)cc5)nn4)cc3)c3c(C)c(CC)c(C)n3[B-](F)(OC)[N+]2=C1C (stereo not shown) [10b, 2-{4-[(1-{2-[4-(2,6-Diethyl-4-fluoro-4-methoxy-1,3,5,7-tetramethyl-4-bora-3a,4a-diaza-s-indacen-8-yl)phenoxy]ethoxyethyl}-1,2,3-triazol-4-yl)methoxy]phenyl}-2-(4-flluorophenyl)-2-phenylacetamide]
- staining pattern of HEK293 cells (negative control) (HEK293 cells): a punctate staining pattern was not observed; also recorded: could not be observed
- staining pattern of fixed A549-3R tumor cells ([2]; 10 µM in PBS, Protocol 1): expected punctate staining pattern of the membrane
- density of labeled KCa3.1 channels ([2]; fixed A549-3R cells, 10 µM): 1.22 ± 0.26 KCa3.1 channels per µm^2 and 1.22 KCa3.1 channels per µm^2
